According to paper PMC12068008 (International Journal of Molecular Sciences, 2024):

Assays:
[1] = target: eeAChE (Electrophorus electricus, UniProt O42275); test: biochemical; settings: at 1 × 10^−4 M, 37 °C; for inhibition at 100 µM: read-out: Percentage Inhibition AChE
Experimental: The abilities of compounds to inhibit AChE and BuChE activity were determined following Ellman’s procedure, with AChI and BuChI as the enzyme substrate, respectively, and DTNB as a chromogenic reagent. AChE’s and BuChE’s working solutions were prepared at 20 mM TRIS and deionized water, respectively. AChI and BuChI solutions were prepared in deionized water. […] Stock solutions (10 mM) of investigated compounds were prepared daily by dissolving solid compounds in DMSO. The reaction mixture containing phosphate buffer, DTNB, enzyme, and compound was preincubated 30 min at 37 °C. After the preincubation time, the enzyme reaction was initiated by adding appropriate substrate and left to incubate for 6 min. After incubation, 0.1 M SDS was added to stop the reaction. […] A blank assay, containing all components except the enzyme, was used to account for non-enzyme reactions. The control solution contained all components except the inhibitor. All experiments were conducted in triplicate, and the results are expressed as the mean percentage enzyme activity compared to the control value. IC50 values were determined graphically using Origin 9 Microsoft Windows.

[2] = system: MRC-5 cells; test: SRB assay, MRC-5 cells; assay type: cell-based; settings: Homo sapiens, MRC5; 72 h after treatment, SRB; read-out: IC50 MRC
Experimental: (§1) Two human breast cancer cell lines, MDA-MB-231 (HTB-26) and MDA-MB-468 (HTB-132), human cervical cancer cell line HeLa (CCL-2), and MRC-5 (CCL-171) fibroblasts were purchased from the American Type Culture Collection (ATCC, Manassas, VA, USA). All cell lines were cultured in Dulbecco’s Modified Eagle’s Medium (DMEM) with 4500 mg/L glucose and L-glutamine (Capricorn Scientific, Ebsdorfergrund, Germany), supplemented with 10% foetal bovine serum (PAN-Biotech, Aidenbach, Germany), 10,000 U/mL penicillin, and 10 mg/mL streptomycin solution (Capricorn Scientific) under standard conditions at 37 °C in a humidified 5% CO2 atmosphere (ESCO, Lifesciences Group, Singapore).
Cells were seeded on a 96-well plate (Thermo Fisher Scientific, Waltham, MA, USA) at 2 × 10^3 cells per well in DMEM medium. For the analysis of the concentration- and time-dependent effect of the analysed compounds, cell monolayers were treated 24 h after seeding with concentrations 1 × 10^−6, 1 × 10^−5, and 1 × 10^−4 M for 24, 48, or 72 h. Cell viability was detected using sulforhodamine B (SRB) assay, based on the staining of cellular proteins. The assay was performed according to the procedure described by Skehan et al.. The cells were fixed with 10% trichloroacetic acid (TCA, CARLO ERBA Reagents GmbH, Emmendingen, Germany) for 1 h at 4 °C, washed with water, and stained for 15 min with 0.4% SRB (Sigma-Aldrich Chemie GmbH, Steinheim, Germany) in 1% acetic acid. The unbound SRB dye was rinsed with 1% acetic acid, while the protein-bound dye was extracted with a 10 mM Tris base (Sigma-Aldrich). The absorbance was measured at 550 nm with a reference wavelength of 690 nm in a microplate reader (Wallac, VICTOR2 1420 Multilabel counter, PerkinElmer, Turku, Finland). The results were expressed as a percentage of the control, where the cell growth of the control is set to 100%. […] The selectivity index (SI) was determined according to the following formula:(2) SI=IC50 for fibroblast cell line/IC50 for tumour cell line […]

[3] = Metal-chelating assay, binding stoichiometry (molar ratio method), Zn2+; assay type: physicochemical; settings: ethanol, 30 min, compound 5 × 10^−5 M, one ion coordinates with two molecules
Experimental: Binding stoichiometry was determined using the molar ratio method, with increasing concentrations of metal ions (from 0 to 1.5 × 10^−4 M) (Figures S1 and S2). Absorption spectra were collected 30 min after mixing. The change in absorption at the wavelength of maximum absorbance for the formed complex was plotted against the metal ion (M^2+ = Cu^2+, Zn^2+, and Fe^2+) to compound ratio (cM^2+/ccompound) and is presented in Figure 3. This graph allows the determination of the binding ratio between the newly synthesized compounds and metal ions. […] In contrast, the results for Fe^2+ indicate that only one Fe^2+ ion can bind to both compounds.
The metal-chelating ability of synthesized compounds in ethanol was assessed using UV/Vis spectrophotometer (Lambda 35, Perkin Elmer) recording spectra over a wavelength range of 230–600 nm in a 1 cm quartz cell. The mixture of compound at 5 × 10^−5 M of final concentration and metal ions at 1 × 10^−4 M of final concentration was incubated for 30 min at room temperature. The tested temperature was 25 °C. […]
The binding stoichiometry was assessed by adding increasing concentrations of metal ions (0–1.5 × 10^−4 M) to a fixed concentration of compound (5 × 10^−5 M) and incubating the mixture for 30 min at room temperature. The spectra were then measured as described above, and the ligand-to-metal chelation ratio in the complex was calculated.

[4] = target: eqBuChE (Equus caballus, UniProt P81908); test: BuChE inhibition (Ellman's procedure); assay type: biochemical; settings: 37 °C; for IC50: read-out: IC50 BChE; for inhibition at 100 µM: at 1 × 10^−4 M, read-out: Percentage Inhibition BuChE
Experimental: The abilities of compounds to inhibit AChE and BuChE activity were determined following Ellman’s procedure, with AChI and BuChI as the enzyme substrate, respectively, and DTNB as a chromogenic reagent. AChE’s and BuChE’s working solutions were prepared at 20 mM TRIS and deionized water, respectively. AChI and BuChI solutions were prepared in deionized water. A 0.01 M DTNB solution was prepared with 0.1 M phosphate buffer (pH 7) containing 0.15% (w/v) sodium bicarbonate. Stock solutions (10 mM) of investigated compounds were prepared daily by dissolving solid compounds in DMSO. The reaction mixture containing phosphate buffer, DTNB, enzyme, and compound was preincubated 30 min at 37 °C. After the preincubation time, the enzyme reaction was initiated by adding appropriate substrate and left to incubate for 6 min. After incubation, 0.1 M SDS was added to stop the reaction. Absorbance measurements were performed using a UV/Vis spectrophotometer (Lambda 35, Perkin Elmer), measuring absorbance at 412 nm. A blank assay, containing all components except the enzyme, was used to account for non-enzyme reactions. The control solution contained all components except the inhibitor. All experiments were conducted in triplicate, and the results are expressed as the mean percentage enzyme activity compared to the control value. IC50 values were determined graphically using Origin 9 Microsoft Windows.

[5] = system: MDA-MB-468 cells; test: SRB assay, MDA-MB-468 cells; assay type: cell-based, human; settings: for IC50: Homo sapiens, MDA-MB-468, 72 h after treatment, SRB, read-out: IC50 MDA-468
Experimental: as §1
Cells were seeded on a 96-well plate (Thermo Fisher Scientific, Waltham, MA, USA) at 2 × 10^3 cells per well in DMEM medium. For the analysis of the concentration- and time-dependent effect of the analysed compounds, cell monolayers were treated 24 h after seeding with concentrations 1 × 10^−6, 1 × 10^−5, and 1 × 10^−4 M for 24, 48, or 72 h. Cell viability was detected using sulforhodamine B (SRB) assay, based on the staining of cellular proteins. The assay was performed according to the procedure described by Skehan et al.. The cells were fixed with 10% trichloroacetic acid (TCA, CARLO ERBA Reagents GmbH, Emmendingen, Germany) for 1 h at 4 °C, washed with water, and stained for 15 min with 0.4% SRB (Sigma-Aldrich Chemie GmbH, Steinheim, Germany) in 1% acetic acid. The unbound SRB dye was rinsed with 1% acetic acid, while the protein-bound dye was extracted with a 10 mM Tris base (Sigma-Aldrich). The absorbance was measured at 550 nm with a reference wavelength of 690 nm in a microplate reader (Wallac, VICTOR2 1420 Multilabel counter, PerkinElmer, Turku, Finland). The results were expressed as a percentage of the control, where the cell growth of the control is set to 100%. IC50, defined as the concentration that caused a 50% loss of cell growth, was calculated by non-linear regression analysis with the ED50plus v1.0 software. The selectivity index (SI) was determined according to the following formula:(2) SI=IC50 for fibroblast cell line/IC50 for tumour cell line
The assay was performed two times in 4 replicates for every experimental group. The statistical significance of differences between treated and untreated cells was estimated by the independent Student’s t-test, with the level of significance set at p < 0.05.

Sequence of eqBuChE (P81908 whole entry): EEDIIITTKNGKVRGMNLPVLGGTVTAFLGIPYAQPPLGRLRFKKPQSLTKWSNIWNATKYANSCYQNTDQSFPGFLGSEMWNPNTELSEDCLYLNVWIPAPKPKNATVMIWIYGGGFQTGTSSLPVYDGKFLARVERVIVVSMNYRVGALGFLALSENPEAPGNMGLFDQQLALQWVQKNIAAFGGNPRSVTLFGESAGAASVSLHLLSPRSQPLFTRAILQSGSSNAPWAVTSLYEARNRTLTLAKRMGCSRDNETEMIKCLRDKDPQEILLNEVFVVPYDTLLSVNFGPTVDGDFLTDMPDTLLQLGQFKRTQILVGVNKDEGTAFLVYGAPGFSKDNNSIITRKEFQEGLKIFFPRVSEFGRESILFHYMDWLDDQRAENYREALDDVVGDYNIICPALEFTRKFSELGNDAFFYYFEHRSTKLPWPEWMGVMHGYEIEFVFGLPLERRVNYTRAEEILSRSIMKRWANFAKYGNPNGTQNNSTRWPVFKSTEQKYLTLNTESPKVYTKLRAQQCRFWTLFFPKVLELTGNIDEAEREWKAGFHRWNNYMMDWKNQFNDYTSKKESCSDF
Sequence of eeAChE (O42275 24-633): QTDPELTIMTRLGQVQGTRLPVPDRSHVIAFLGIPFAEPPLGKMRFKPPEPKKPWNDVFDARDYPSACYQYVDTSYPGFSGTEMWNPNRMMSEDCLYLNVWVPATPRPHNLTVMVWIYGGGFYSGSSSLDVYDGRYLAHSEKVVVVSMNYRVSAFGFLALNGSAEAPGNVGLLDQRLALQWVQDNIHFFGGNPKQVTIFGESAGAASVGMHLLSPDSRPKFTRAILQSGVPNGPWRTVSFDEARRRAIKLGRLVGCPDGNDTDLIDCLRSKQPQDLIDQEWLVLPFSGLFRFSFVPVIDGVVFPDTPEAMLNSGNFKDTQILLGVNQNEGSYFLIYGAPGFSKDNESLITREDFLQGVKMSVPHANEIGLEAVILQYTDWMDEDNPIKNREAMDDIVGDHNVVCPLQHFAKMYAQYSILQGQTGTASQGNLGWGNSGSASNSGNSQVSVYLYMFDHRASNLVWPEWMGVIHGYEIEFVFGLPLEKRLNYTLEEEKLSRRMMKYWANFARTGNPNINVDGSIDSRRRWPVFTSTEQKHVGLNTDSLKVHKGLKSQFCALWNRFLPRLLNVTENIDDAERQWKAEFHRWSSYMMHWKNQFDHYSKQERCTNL

| Structure (SMILES) | Percentage Inhibition AChE [1] | inhibition at 100 µM [1] | IC50 [2] | binding stoichiometry Zn^2+ [3] | IC50 [4] | inhibition at 100 µM [4] | IC50 [5] | highest inhibition of MDA-468 cells ([5]; highest concentration, 72 h) |
| --- | --- | --- | --- | --- | --- | --- | --- | --- |
| COc1cc2c(cc1OC)CN(Cc1c(O)cc(O)c3c(=O)c(O)c(-c4ccc(O)c(O)c4)oc13)CC2 [Compound 2b] | 15.4% | 15% | 16.6 ± 0.83 µM | 2 | 41.1 µM | 67.6% | 109 ± 5 µM | 56.56% |
| O=c1c(O)c(-c2ccc(O)c(O)c2)oc2c(CN3CCc4ccccc4C3)c(O)cc(O)c12 [Compound 2a] | – | 33.3% | 55.7 ± 2.78 µM | 2 | 16.9 µM | 70% | > 200 µM | – |
